Legend:
Format in all cases: cell-based
E. coli O157:H7 = E. coli O157:H7 counts in water containing rumen content or feces treated with chemicals or chemical combinations; conditions: 21° C.; for E. coli O157:H7 counts (log10 cfu/ml) at min 0: 0 min; for E. coli O157:H7 counts (log10 cfu/ml) at min 2: 2 min; for E. coli O157:H7 counts (log10 cfu/ml) at min 5: 5 min; for E. coli O157:H7 counts (log10 cfu/ml) at min 10: 10 min; for E. coli O157:H7 counts (log10 cfu/ml) at min 20: 20 min; for E. coli O157:H7 counts (log10 cfu/ml) at min 30: 30 min; for E. coli O157:H7 counts (log10 cfu/ml) at min 60: 60 min; for E. coli O157:H7 counts (log10 cfu/ml) at min 120: 120 min
E. coli O26:H11 = E. coli O26:H11 counts in water containing rumen content or feces treated with chemical combinations; conditions: 21° C.; for E. coli O26:H11 counts (log10 cfu/ml) at min: 0: 0 min; for E. coli O26:H11 counts (log10 cfu/ml) at min: 2: 2 min; for E. coli O26:H11 counts (log10 cfu/ml) at min: 5: 5 min; for E. coli O26:H11 counts (log10 cfu/ml) at min: 10: 10 min; for E. coli O26:H11 counts (log10 cfu/ml) at min: 20: 20 min; for E. coli O26:H11 counts (log10 cfu/ml) at min: 30: 30 min; for E. coli O26:H11 counts (log10 cfu/ml) at min: 60: 60 min; for E. coli O26:H11 counts (log10 cfu/ml) at min: 120: 120 min
E. coli O111:NM = E. coli O111:NM counts in water containing rumen content or feces treated with chemical combinations; conditions: 21° C.; for E. coli O111:NM counts (log10 cfu/ml) at min 0: 0 min; for E. coli O111:NM counts (log10 cfu/ml) at min 2: 2 min; for E. coli O111:NM counts (log10 cfu/ml) at min 5: 5 min; for E. coli O111:NM counts (log10 cfu/ml) at min 10: 10 min; for E. coli O111:NM counts (log10 cfu/ml) at min 20: 20 min; for E. coli O111:NM counts (log10 cfu/ml) at min 30: 30 min; for E. coli O111:NM counts (log10 cfu/ml) at min 60: 60 min; for E. coli O111:NM counts (log10 cfu/ml) at min 120: 120 min
[1] = water containing feces (20:1, v/w)
[2] = water containing rumen content (10:1, v/w)

O=C([O-])c1ccccc1.[Na+] [0.1% sodium benzoate, sodium benzoate]
E. coli O157:H7 counts (log10 cfu/ml) at min 0 (E. coli O157:H7; [1]): 5.7 log10 cfu/ml
E. coli O157:H7 counts (log10 cfu/ml) at min 2 (E. coli O157:H7; [1]): 5.6 log10 cfu/ml
E. coli O157:H7 counts (log10 cfu/ml) at min 5 (E. coli O157:H7; [1]): 5.4 log10 cfu/ml
E. coli O157:H7 counts (log10 cfu/ml) at min 10 (E. coli O157:H7; [1]): 5.6 log10 cfu/ml
E. coli O157:H7 counts (log10 cfu/ml) at min 20 (E. coli O157:H7; [1]): 5.5 log10 cfu/ml
E. coli O157:H7 counts (log10 cfu/ml) at min 30 (E. coli O157:H7; [1]): 5.4 log10 cfu/ml
E. coli O157:H7 counts (log10 cfu/ml) at min 60 (E. coli O157:H7; [1]): 5.5 log10 cfu/ml
E. coli O157:H7 counts (log10 cfu/ml) at min 120 (E. coli O157:H7; [1]): 5.6 log10 cfu/ml
E. coli O157:H7 counts (log10 cfu/ml) at min 0 (E. coli O157:H7; [2]): 5.9 log10 cfu/ml
E. coli O157:H7 counts (log10 cfu/ml) at min 2 (E. coli O157:H7; [2]): 6.0 log10 cfu/ml
E. coli O157:H7 counts (log10 cfu/ml) at min 5 (E. coli O157:H7; [2]): 6.0 log10 cfu/ml
E. coli O157:H7 counts (log10 cfu/ml) at min 10 (E. coli O157:H7; [2]): 5.9 log10 cfu/ml
E. coli O157:H7 counts (log10 cfu/ml) at min 20 (E. coli O157:H7; [2]): 6.0 log10 cfu/ml
E. coli O157:H7 counts (log10 cfu/ml) at min 30 (E. coli O157:H7; [2]): 5.9 log10 cfu/ml
E. coli O157:H7 counts (log10 cfu/ml) at min 60 (E. coli O157:H7; [2]): 6.0 log10 cfu/ml
E. coli O157:H7 counts (log10 cfu/ml) at min 120 (E. coli O157:H7; [2]): 6.1 log10 cfu/ml
E. coli O26:H11 counts (log10 cfu/ml) at min: 0 (E. coli O26:H11; [1]): 5.5 log10 cfu/ml
E. coli O26:H11 counts (log10 cfu/ml) at min: 2 (E. coli O26:H11; [1]): 5.4 log10 cfu/ml
E. coli O26:H11 counts (log10 cfu/ml) at min: 5 (E. coli O26:H11; [1]): 5.5 log10 cfu/ml
E. coli O26:H11 counts (log10 cfu/ml) at min: 10 (E. coli O26:H11; [1]): 5.4 log10 cfu/ml
E. coli O26:H11 counts (log10 cfu/ml) at min: 20 (E. coli O26:H11; [1]): 5.5 log10 cfu/ml
E. coli O26:H11 counts (log10 cfu/ml) at min: 30 (E. coli O26:H11; [1]): 5.4 log10 cfu/ml
E. coli O26:H11 counts (log10 cfu/ml) at min: 60 (E. coli O26:H11; [1]): 5.5 log10 cfu/ml
E. coli O26:H11 counts (log10 cfu/ml) at min: 120 (E. coli O26:H11; [1]): 5.4 log10 cfu/ml
E. coli O26:H11 counts (log10 cfu/ml) at min: 0 (E. coli O26:H11; [2]): 5.6 log10 cfu/ml
E. coli O26:H11 counts (log10 cfu/ml) at min: 2 (E. coli O26:H11; [2]): 5.5 log10 cfu/ml
E. coli O26:H11 counts (log10 cfu/ml) at min: 5 (E. coli O26:H11; [2]): 5.4 log10 cfu/ml
E. coli O26:H11 counts (log10 cfu/ml) at min: 10 (E. coli O26:H11; [2]): 5.5 log10 cfu/ml
E. coli O26:H11 counts (log10 cfu/ml) at min: 20 (E. coli O26:H11; [2]): 5.5 log10 cfu/ml
E. coli O26:H11 counts (log10 cfu/ml) at min: 30 (E. coli O26:H11; [2]): 5.5 log10 cfu/ml
E. coli O26:H11 counts (log10 cfu/ml) at min: 60 (E. coli O26:H11; [2]): 5.4 log10 cfu/ml
E. coli O26:H11 counts (log10 cfu/ml) at min: 120 (E. coli O26:H11; [2]): 5.5 log10 cfu/ml
E. coli O111:NM counts (log10 cfu/ml) at min 0 (E. coli O111:NM; [1]): 5.6 log10 cfu/ml
E. coli O111:NM counts (log10 cfu/ml) at min 2 (E. coli O111:NM; [1]): 5.6 log10 cfu/ml
E. coli O111:NM counts (log10 cfu/ml) at min 5 (E. coli O111:NM; [1]): 5.6 log10 cfu/ml
E. coli O111:NM counts (log10 cfu/ml) at min 10 (E. coli O111:NM; [1]): 5.7 log10 cfu/ml
E. coli O111:NM counts (log10 cfu/ml) at min 20 (E. coli O111:NM; [1]): 5.6 log10 cfu/ml
E. coli O111:NM counts (log10 cfu/ml) at min 30 (E. coli O111:NM; [1]): 5.5 log10 cfu/ml
E. coli O111:NM counts (log10 cfu/ml) at min 60 (E. coli O111:NM; [1]): 5.5 log10 cfu/ml
E. coli O111:NM counts (log10 cfu/ml) at min 120 (E. coli O111:NM; [1]): 5.6 log10 cfu/ml
E. coli O111:NM counts (log10 cfu/ml) at min 0 (E. coli O111:NM; [2]): 5.6 log10 cfu/ml
E. coli O111:NM counts (log10 cfu/ml) at min 2 (E. coli O111:NM; [2]): 5.6 log10 cfu/ml
E. coli O111:NM counts (log10 cfu/ml) at min 5 (E. coli O111:NM; [2]): 5.5 log10 cfu/ml
E. coli O111:NM counts (log10 cfu/ml) at min 10 (E. coli O111:NM; [2]): 5.6 log10 cfu/ml
E. coli O111:NM counts (log10 cfu/ml) at min 20 (E. coli O111:NM; [2]): 5.6 log10 cfu/ml
E. coli O111:NM counts (log10 cfu/ml) at min 30 (E. coli O111:NM; [2]): 5.5 log10 cfu/ml
E. coli O111:NM counts (log10 cfu/ml) at min 60 (E. coli O111:NM; [2]): 5.4 log10 cfu/ml
E. coli O111:NM counts (log10 cfu/ml) at min 120 (E. coli O111:NM; [2]): 5.5 log10 cfu/ml

Source: patent publication US8137705B2 (priority 2005, dated 2012)
